This note sets out measurements from PubChem BioAssay AID1083 (University of Pittsburgh Molecular Library Screening Center, 2008).

pIC50: −log10 of the molar value. “And” between values parts separate entries of the source, which are not always exact repeats. Identical values can stand only once. The source made the active and inactive calls. How the calls were made is not given here.

This assay deals with Serine/threonine-protein kinase PLK1 (Homo sapiens) (UniProt P53350). Kind of assay: PLK1 polo-box domain peptide-binding inhibitors, SAR follow-up, biochemical, fluorescence polarization, purchased analogs, concentration response (AID 1083). As to conditions: Plk1 PBD peptide binding.
Sequence of Serine/threonine-protein kinase PLK1 (Homo sapiens) (P53350 whole entry, looked up, the tested form may be a part): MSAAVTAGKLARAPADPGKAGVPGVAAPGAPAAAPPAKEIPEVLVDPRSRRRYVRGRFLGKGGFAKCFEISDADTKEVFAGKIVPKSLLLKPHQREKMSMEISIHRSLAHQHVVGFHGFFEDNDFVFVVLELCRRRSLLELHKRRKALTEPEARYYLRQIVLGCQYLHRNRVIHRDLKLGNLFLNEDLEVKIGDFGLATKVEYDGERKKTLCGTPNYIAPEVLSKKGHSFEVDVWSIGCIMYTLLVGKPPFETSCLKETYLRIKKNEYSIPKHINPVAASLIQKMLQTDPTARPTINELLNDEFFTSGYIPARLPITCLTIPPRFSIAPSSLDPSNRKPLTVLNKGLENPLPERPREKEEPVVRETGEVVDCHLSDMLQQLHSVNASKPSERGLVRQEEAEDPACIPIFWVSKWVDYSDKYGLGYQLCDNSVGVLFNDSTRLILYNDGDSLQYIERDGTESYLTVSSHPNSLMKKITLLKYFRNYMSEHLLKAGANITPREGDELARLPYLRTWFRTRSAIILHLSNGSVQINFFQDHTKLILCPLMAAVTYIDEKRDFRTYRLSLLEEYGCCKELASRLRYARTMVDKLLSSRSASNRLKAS
The IC50 is the concentration at which inhibition is half-maximal. `O=c1[nH]c2c(c(O)c1-c1ccccc1)c(=O)n(-c1ccccc1)c(=O)n2-c1ccccc1`: the IC50 was > 50 µM (inactive).

Take `CCOC(=O)c1ccc(NC(=O)C2CC(=O)N=C(N)S2)cc1` (centres undefined): the IC50 is > 50 µM (inactive).

With `CCOC(=O)c1ccc(NC(=O)C2OCCc3ccccc32)cc1` (centres undefined), the IC50 is > 50 µM (inactive).

Regarding `CC(=O)N(CN1C(=O)c2ccccc2C1=O)c1ccc2ccccc2c1`, the IC50 is > 50 µM (inactive).

Turning to `Cn1c(=O)c2nc(-c3ccccc3)c(-c3ccccc3)nc2n(C)c1=O`, the IC50 is > 50 µM (inactive).

What is called pIC50 is the IC50 on a negative log10 scale, so that one unit is a factor of ten. As to `CCn1nc(-c2ccccc2Br)nc2c(=O)n(C)c(=O)nc1-2`, the pIC50 is 5.87.

With `CCOC(=O)c1ccc(NC(=O)C2Oc3ccccc3OC2C)cc1` (centres undefined), the IC50 is > 50 µM (inactive).

In the case of `CCOc1cc(-c2nnc3[nH]c(=O)n(C)c(=O)c3n2)ccc1OC(C)C`, the pIC50 is 4.54.

In the case of `CCOC(=O)c1ccc(NC(=O)C2CC(=O)NC(=NC)S2)cc1` (centres undefined), the IC50 was > 50 µM (inactive).

In the case of `CC(=O)N(/N=C1\Sc2ccccc2C1=O)c1cc(C)ccc1C`, the IC50 is > 50 µM (inactive).

As for `Cn1c(=O)c2nc(-c3ccccc3)c(=O)[nH]c2n(C)c1=O`, the IC50 is > 50 µM (inactive).

As for `CCOC(=O)N1CCN(c2cc3nccnc3cc2F)CC1`, the IC50 is > 50 µM (inactive).

For the compound `O=C1NC(=O)C(=Cc2c3ccccc3cc3ccccc23)C(=O)N1`, the IC50 was > 50 µM (inactive).

With `CCn1nc(-c2ccc(C(F)(F)F)cc2)nc2c(=O)n(C)c(=O)nc1-2`, the pIC50 was 6.26.

Take `CC(=O)N(/N=C1\Sc2ccccc2C1=O)c1ccccc1`: the pIC50 is 4.69.

As for `CCN(CC)CCOC(=O)c1ccc(N=Cc2c(O)n(-c3c(C)cc(C)cc3C)c(=O)[nH]c2=O)cc1`, the IC50 is > 50 µM (inactive).

Consider `CCCCOC(=O)c1ccc(N=Cc2c(O)[nH]c(=O)[nH]c2=O)cc1`, for which the IC50 was > 50 µM (inactive).

On to `CCOC(=O)c1ccc(NC(=O)C2CCC(C)CC2)cc1` (centres undefined), for which the IC50 is > 50 µM (inactive).

`COc1cc(C=C2C(=O)NC(=O)NC2=O)ccc1OCc1c(C)no[n+]1[O-]`: the IC50 is > 50 µM (inactive).

As to `CCOC(=O)c1ccc(NC(=O)c2ccc(Cl)c(Cl)c2)cc1`, the IC50 is > 50 µM (inactive).

In the case of `CCOC(=O)c1ccc(NC(=O)C2C3C=CC(C3)C2C(=O)O)cc1` (centres undefined), the IC50 is > 50 µM (inactive).

As for `CC(=O)N(/N=C1\Sc2ccccc2C1=O)c1cccc(C)c1`, the pIC50 was 4.86.

For `CCCOC(=O)c1ccc(NC(=O)c2c(F)c(F)c(F)c(F)c2F)cc1`, the IC50 was > 50 µM (inactive).

Consider `COc1ccccc1N(CN1C(=O)c2ccc([N+](=O)[O-])cc2C1=O)C(C)=O`, for which the IC50 is > 50 µM (inactive).

`CCOC(=O)c1ccc(NC(=O)C2CCCCC2C(=O)O)cc1` (centres undefined): the IC50 is > 50 µM (inactive).

As to `Cc1ccccc1-c1nc2c(=O)n(C)c(=O)nc-2n(C)n1`, the pIC50 is 5.78 and 5.39.

Take `CC(=O)N(CN1C(=O)c2ccccc2C1=O)c1ccc(I)cc1`: the IC50 is > 50 µM (inactive).

On to `COc1cc(Br)cc(C=C2C(=O)NC(=O)NC2=O)c1O`, for which the IC50 is > 50 µM (inactive).

`Cn1c(=O)[nH]c2nnc(-c3ccc(F)cc3)nc2c1=O`: the IC50 was > 50 µM (inactive).

As to `CC(=O)N(/N=C1\Sc2ccccc2C1=O)c1ccccc1I`, the IC50 is > 50 µM (inactive).

As for `CC(=O)N(/N=C1\Sc2ccccc2C1=O)c1ccc(C)cc1C`, the IC50 was > 50 µM (inactive).

Consider `O=C1NC(=O)C(=Cc2ccccc2OCCOc2ccccc2)C(=O)N1`, for which the IC50 was > 50 µM (inactive).

As for `CCOC(=O)c1ccc(NC(=O)c2c(C)cc(=O)oc2C)cc1`, the IC50 is > 50 µM (inactive).

Regarding `CCOC(=O)c1ccc(NC(=O)C2Cc3ccccc3C(=O)O2)cc1` (centres undefined), the IC50 was > 50 µM (inactive).

On to `CCOc1ccc(-c2nc3c(=O)n(C)c(=O)nc-3n(C)n2)cc1OC`, for which the pIC50 was 7.66.

On to `COc1ccc(N(CN2C(=O)c3ccccc3C2=O)C(=O)C(F)(F)F)cc1`, for which the IC50 is > 50 µM (inactive).

For `Cc1ccc(N(CN2C(=O)c3ccc([N+](=O)[O-])cc3C2=O)C(=O)C(c2ccccc2)c2ccccc2)cc1`, the IC50 is > 50 µM (inactive).

Consider `Cn1c(=O)[nH]c2nnc(-c3ccc(Cl)cc3)nc2c1=O`, for which the IC50 was > 50 µM (inactive).

As for `CC(=O)Oc1ccccc1N(/C=C1/Sc2ccccc2C1=O)C(C)=O`, the IC50 was > 50 µM (inactive).
